Measured values published in paper PMC9861180, “Nintedanib-αVβ6 Integrin Ligand Conjugates Reduce TGFβ-Induced EMT in Human Non-Small Cell Lung Cancer” (International Journal of Molecular Sciences, 2023).
Entries after “also recorded” stand apart in the source; their conditions may differ.

Legend:
αvβ6 integrin receptor = assay: Expression of αvβ6 integrin by cytofluorimetric analysis; assay type: cell-based, human
Method: (§1) Expression of αvβ6 integrins was determined by cytofluorimetric analysis. Human NSCLC A549 and H1975 cells, either grown in standard conditions or exposed to TGFβ treatment, were detached from the substrate using Accutase® to minimize the exposure of the extracellular membrane proteins to the enzymatic activity of trypsin. The cells were then incubated with primary antibodies, in the absence of membrane permeabilization. The cytofluorimetric procedures ensured quantification of the αvβ6 integrin receptor protruding outside the cells. […] These percentages increased to 66% of the parental population in A549 cells and to 55% in H1975, when the cells were exposed to TGFβ for 48 h (Figure 2B,D). […] In addition, we evaluated αvβ6 integrin expression on human melanoma cells (SSM2c, Figure S4A) and murine fibroblasts (L929, Figure S5A), whereas expression of the αvβ3 integrin receptor in these cells had been previously evaluated.
(§2) A549, L929, and K562 cells were allowed to grow in standard conditions; in several experiments, A549 cells were grown in the presence or in the absence of recombinant human TGFβ (10 ng/mL) (#11343160 Immunotools Friesoythe Germany). […] After extensive washes using cytofluorimetric buffer, cells were analyzed using a BD FACSCanto™ flow cytometry system (BD Bioscience, Eysins, Switzerland).

αvβ3 integrin [1] = assay: Expression of αvβ3 integrin by cytofluorimetric analysis; assay type: cell-based, human
Method: as §1
as §2, with “Switzerland). […]” for “Switzerland).”

TGFβ-treated A549 cells = assay: cells; assay type: cell-based, human; conditions: 24 h
Method: A549 cell viability was assessed using MTT (3-(4,5-dimethylthiazol-2-yl)-2,5-diphenyltetrazolium bromide) tetrazolium reduction assay (M5655, Sigma Aldrich, Milan, Italy), as described in [58]. Briefly, A549 cells were treated for 48 h in complete medium with TGFβ (10 ng/mL). Next, cells (2.5 × 10^3) were plated into 96-multiwell plates in 100 µL of complete medium. After adhesion, the compounds were added to the medium at different concentrations. After 24 h exposure, the medium was replaced with 100 µL MTT reagent in each well, and plates were incubated at 37 °C. After 2 h, MTT was removed, and the blue MTT–formazan product was solubilized with dimethyl sulfoxide (DMSO, Sigma Aldrich). The absorbance of the formazan solution was read at 595 nm using the microplate reader (Bio-Rad, Milan, Italy). Inhibition of cell proliferation was calculated by the IC50 calculator (AAT Bioquest, Inc., Pleasanton, CA, USA, https://www.aatbio.com/ (accessed on 1 July 2022)).

A549 cells [2] = assay: Inhibition of A549 cell adhesion to fibronectin; assay type: cell-based, human
Method: (§3) To verify whether conjugates 1–3 were able to bind the integrin receptor efficiently and compete with the receptor’s natural ligand (fibronectin) for the binding site, we performed an inhibition of adhesion assay. In this assay, the biological effects of the three conjugated compounds were compared to the inhibitory ability of the unconjugated ligand 4. Inhibition of A549 and H1975 cell adhesion to fibronectin was determined in both untreated and TGFβ-treated cells. The assay was carried out with increasing concentrations of compounds 1–3 and unconjugated cyclic peptidomimetic 4. […]
(§4) Figure 3 Inhibition of A549 (A,B) and H1975 (C,D) cell adhesion to FN (10 μg/mL) in the presence of compounds 1–3, or c(AmpLRGDL) 4 (2 h). […] The inhibitory activity was calculated as the percentage of cell adhesion to FN in untreated cells and was expressed as mean ± SEM. […]
(§5) 96-well plates were coated with fibronectin (10 µg/mL) (sc-29011 SantaCruz, D.B.A., Milano, Italia) by overnight incubation at 4 °C. […] Next, A549 cells were washed by centrifugation with PBS, counted, and suspended in serum-free medium at 0.6 × 10^6 cells/mL. […] After 2 h of incubation at […], cells were permeabilized with 50 µL of DMSO (C6164, Sigma-Aldrich Merk Life Science S.r.l. Milano, Italy) and plates were examined at 550 nm in a counter BioRad (550 Microplate Reader, BioRad, Milano, Italy). […]

H1975 cells = assay: Inhibition of H1975 cell adhesion to fibronectin; assay type: cell-based, human; conditions: untreated and TGFβ-treated, increasing concentrations
Method: as §3, §4, §5

A549 cells [3] = assay: Inhibition of A549 cell adhesion to vitronectin; assay type: cell-based, human; conditions: A549 cells and TGFβ-treated A549 cells
Method: The highest levels of inhibition in A549 cells were registered with compounds 1 and 2, which were able to inhibit more than 50% adhesion in TGFβ-treated cells even at concentrations of 1 μM, a percentage that raised to 70% when these compounds were tested at 5 μM. […] Moreover, high levels of inhibition were registered in H1975 cells with compounds 1–3 that reached a minimum of 50% inhibition of adhesion in TGFβ-treated cells at 1 μM. These percentages increased to 70% when the compounds were tested at 5 μM. […] As already mentioned, the expression of αvβ3 integrins in A549 cells was reduced after exposure to TGFβ. Since αvβ3 integrins are one of the most avid receptors for vitronectin (VN), we investigated whether compounds 1–4 were able to inhibit A549 cell adhesion to VN. We discovered that, in A549 cells and in TGFβ-treated A549 cells, cell adhesion to vitronectin was not inhibited by the three different conjugated compounds nor by compound 4 (Figure S2E); this lack of efficacy is probably due to the lower binding affinity of the integrin ligand towards the αvβ3 integrin receptors.
2. […]
Figure S2. […] The inhibitory activity was calculated as the percentage of cell adhesion to VN in untreated cells and was expressed as means ± SEM. […]

[4] = system: α-smooth muscle actin (α-SMA); assay: α-smooth muscle actin protein expression, Western blot; assay type: cell-based, human; conditions: TGFβ-treated A549 cells, 5 μM, 24 h
Method: Data are expressed as means ± SEM of fold increment compared to untreated cells normalized to α-tubulin.
Western blot analysis was performed on whole-cell lysates of A549 cells, exposed for 48 h to TGFβ treatment and subsequently exposed to 5 µM concentrations of different compounds. After 24 h incubation, media were rapidly removed and cell monolayers were lysed as previously described in RIPA lysis buffer, with the addition of proteinase inhibitor cocktail (04693124001 Roche Merk Life Science S.r.l., Milano, Italy) for 30 min in ice [35]. Protein content was quantified, and forty-fifty micrograms of total proteins were separated on Bolt® Bis-Tris Plus gels 4–12% (Life Technologies, Monza, Italy). Fractionated proteins were transferred from the gel to a PVDF nitrocellulose membrane using iBlot 2 system (Life Technologies, Monza, Italy). Membranes were blocked for 5 min at room temperature, with EveryBlot Biorad blocking buffer (Life Technologies, Monza, Italy). […] The protein bands were analyzed by the Odyssey Infrared Imaging System (Lycor Bioscience) using software for protein quantification. […]

[5] = system: tumor spheroids of TGFβ-treated A549 cells and murine L929 fibroblasts; assay: Inhibition of 3D tumor spheroid growth; assay type: cell-based, human; conditions: 5 µM, 72 h, vs untreated spheroids
Method: Heterogeneous spheroids of tumor cells and fibroblasts were generated using the hanging drop technique to mimic the complex three-dimensional environment of tumor tissues. […] Next, the fluorescence intensities associated with each cell population were analyzed as previously described.
Hanging drop tumor spheroids were prepared starting from 1:1 mixed cell population (1000 cells/25μL) of TGF𝛽-treated A549 cells and murine L929 fibroblasts. […] (C) Quantitative analysis of inhibition of 3D growth and (D) 3D spheroid internalization of the compounds after 72 h exposure. Data are representative of three independent experiments (n = 6) and expressed as means ± SEM. * p < 0.05 vs. untreated spheroids.
A549 cells, exposed for 48 h to TGFβ treatment, were mixed in a 1:1 ratio with murine L929 fibroblast (40,000/mL) in order to obtain 3D multicellular tumor spheroids (MCTS) resembling cellular heterogenicity of the neoplastic lesion. […] After one week, multicellular tumor spheroids were completely formed. Tumor spheroids were next used in different experimental procedures. […] For 3D growth inhibition, spheroids were placed on 2% agarose coated dishes in complete medium containing the different treatments at 5 µM concentration. Spheroid areas were analysed and compared to time 0 and used to evaluate the inhibition of 3D growth (yellow lines). Images of all spheroids were taken daily using the EVOS XL Core Imaging System with a 10x objective (Thermofisher Scientific, Waltham, MA, USA ). All images were analysed using the open-source software ImageJ (1.52a, National Institutes of Health, Bethesda, MD, USA).

[6] = system: tumor spheroids of TGFβ-treated A549 cells and murine L929 fibroblasts; assay: Tumor spheroid 2D flat surface migration and growth; assay type: cell-based, human; conditions: 5 µM, fibronectin-coated flat surface
Method: Heterogeneous spheroids of tumor cells and fibroblasts were also used to evaluate the ability of the compounds to inhibit 2D flat surface migration and growth once the spheroids were allowed to attach to a suitable surface (Figure 8).
Hanging drop tumor spheroids were allowed to spread on a 2D fibronectin-coated flat surface. […] Data are representative of three independent experiments (n = 6) and expressed as means ± SEM. * p < 0.05 vs. untreated spheroids.
A549 cells, exposed for 48 h to TGFβ treatment, were mixed in a 1:1 ratio with murine L929 fibroblast (40,000/mL) in order to obtain 3D multicellular tumor spheroids (MCTS) resembling cellular heterogenicity of the neoplastic lesion. […] After one week, multicellular tumor spheroids were completely formed. Tumor spheroids were next used in different experimental procedures. We evaluated 2D flat surface inhibition of migration and growth, and the inhibition of 3D growth. For 2D flat surface migration and growth inhibition assays, the spheroids were placed on regular culture dishes and allowed to spread and grow in complete medium containing different compounds at 5 µM concentration. The areas of cell spreading were used as parameters for migration (red lines), while the areas of the spheroid core were used as parameters for 2D growth (yellow lines). For 3D growth inhibition, spheroids were placed on 2% agarose coated dishes in complete medium containing the different treatments at 5 µM concentration. Spheroid areas were analysed and compared to time 0 and used to evaluate the inhibition of 3D growth (yellow lines). Images of all spheroids were taken daily using the EVOS XL Core Imaging System with a 10x objective (Thermofisher Scientific, Waltham, MA, USA ). All images were analysed using the open-source software ImageJ (1.52a, National Institutes of Health, Bethesda, MD, USA).

αvβ6 integrin = system: αvβ6 integrin; parameters: method as in PMID 32634263; conditions: cited from earlier work
αvβ3 integrin [7] = system: αvβ3 integrin; parameters: method as in PMID 32634263; conditions: isolated integrin; cited from earlier work
human recombinant VEGFR2 = molecular target: T1, human recombinant VEGFR2 (Homo sapiens, UniProt P35968); assay: VEGFR2 tyrosine kinase inhibition, radiometric (Eurofins); assay type: biochemical; conditions: nine-point concentration-response curve, radiometric detection; read-out: IC50, inhibition of VEGFR2 phosphorylation
T1 construct: purchased Eurofins (Cerep laboratories; KinaseProfiler, IC50 Profiler service)
T1 sequence (P35968 20-1356): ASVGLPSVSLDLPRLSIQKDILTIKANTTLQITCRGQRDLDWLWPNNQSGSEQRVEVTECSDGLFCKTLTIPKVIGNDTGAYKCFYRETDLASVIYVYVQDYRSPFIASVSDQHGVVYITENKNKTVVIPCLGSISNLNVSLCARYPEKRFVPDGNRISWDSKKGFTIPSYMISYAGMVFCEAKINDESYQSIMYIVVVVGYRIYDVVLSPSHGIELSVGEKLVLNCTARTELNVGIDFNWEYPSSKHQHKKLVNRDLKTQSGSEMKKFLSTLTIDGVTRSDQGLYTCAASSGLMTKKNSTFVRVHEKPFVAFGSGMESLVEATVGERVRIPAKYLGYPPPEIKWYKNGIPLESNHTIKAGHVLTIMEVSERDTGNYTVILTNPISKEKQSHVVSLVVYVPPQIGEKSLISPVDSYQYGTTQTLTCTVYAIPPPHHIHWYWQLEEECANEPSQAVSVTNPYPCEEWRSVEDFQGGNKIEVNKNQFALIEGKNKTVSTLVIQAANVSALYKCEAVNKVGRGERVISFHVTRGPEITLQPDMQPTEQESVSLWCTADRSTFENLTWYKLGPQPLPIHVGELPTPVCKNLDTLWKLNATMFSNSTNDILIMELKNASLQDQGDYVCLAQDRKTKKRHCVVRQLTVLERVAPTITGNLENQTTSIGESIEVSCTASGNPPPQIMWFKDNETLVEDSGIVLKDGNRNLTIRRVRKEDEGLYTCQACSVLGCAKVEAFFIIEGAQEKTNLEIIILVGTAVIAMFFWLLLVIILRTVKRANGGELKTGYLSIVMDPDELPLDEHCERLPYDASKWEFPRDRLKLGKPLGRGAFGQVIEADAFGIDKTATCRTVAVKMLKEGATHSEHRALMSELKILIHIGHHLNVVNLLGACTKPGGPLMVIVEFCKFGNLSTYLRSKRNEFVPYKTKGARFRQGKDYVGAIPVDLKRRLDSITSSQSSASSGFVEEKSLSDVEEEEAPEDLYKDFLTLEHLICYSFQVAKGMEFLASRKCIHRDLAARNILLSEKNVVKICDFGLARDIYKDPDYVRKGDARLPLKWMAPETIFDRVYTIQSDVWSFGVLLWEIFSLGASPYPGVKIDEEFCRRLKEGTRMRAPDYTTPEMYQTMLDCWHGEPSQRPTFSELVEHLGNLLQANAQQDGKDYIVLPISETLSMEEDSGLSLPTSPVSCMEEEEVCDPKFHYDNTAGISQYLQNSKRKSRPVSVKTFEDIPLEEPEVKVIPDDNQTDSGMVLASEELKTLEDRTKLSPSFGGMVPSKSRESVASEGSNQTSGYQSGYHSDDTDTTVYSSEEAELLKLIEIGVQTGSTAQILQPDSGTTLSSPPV
Method: Inhibition of receptor phosphorylation was measured by a radiometric detection method. IC50 values were determined from a nine-point concentration−response curve generated using the standard assay conditions for the target.

Compound: TGFβ: recombinant human TGFβ (10 ng/mL) used to induce EMT and αvβ6 expression
- cell population expressing αvβ6 integrin receptor (αvβ6 integrin receptor; A549 cells exposed to TGFβ (10 ng/mL) for 48 h): 66%
- cell population expressing αvβ6 integrin receptor (αvβ6 integrin receptor; H1975 cells exposed to TGFβ (10 ng/mL) for 48 h): 55%
- αvβ3 integrin expression (αvβ3 integrin [1]; A549 cells exposed to TGFβ (10 ng/mL) 48 h, 72% without TGFβ): 32%
- αvβ3 integrin expression (αvβ3 integrin [1]; H1975 cells, unaffected by TGFβ treatment): 98%

Compound: COC(=O)c1ccc2c(c1)NC(=O)/C2=C(\Nc1ccc(N(C)C(=O)CN2CCN(CCOCCOCCOCc3cn(CCCCCC(=O)N4C[C@@H]5C[C@H]4C(=O)N[C@@H](CC(C)C)C(=O)N[C@@H](CCCNC(=N)N)C(=O)NCC(=O)N[C@@H](CC(=O)O)C(=O)N[C@@H](CC(C)C)C(=O)N5)nn3)CC2)cc1)c1ccccc1 [compound 2]
- IC50 (TGFβ-treated A549 cells): 10.1 µM

Compound: c(AmpLRGDL) [compound 4]
- level of inhibition of cell adhesion to fibronectin (A549 cells [2]; even TGFβ-treated, all concentrations tested): ≤ 50%
- inhibition of cell adhesion to fibronectin (in words) (A549 cells [2]; untreated and TGFβ-treated, increasing concentrations): weak concentration dependence
- inhibition of cell adhesion to fibronectin (in words) (H1975 cells): weak concentration-dependence
- inhibition of cell adhesion to vitronectin (A549 cells [3]): not inhibited
- α-SMA protein expression [4]: not able to affect
- inhibition of 3D spheroid growth [5]: did not induce a significant reduction; also recorded: transient reduction
- 2D flat surface migration of tumor spheroids [6]: did not inhibit cell growth and migration; also recorded: considerably weaker effect
- 2D growth of tumor spheroids (spheroid core) [6]: did not inhibit cell growth and migration; also recorded: very weak inhibition
- IC50 (αvβ6 integrin; isolated integrin): 0.0083 ± 0.0004 µM
- selectivity IC50(αvβ3)/IC50(αvβ6) (αvβ6 integrin; isolated integrins): 255
- IC50 (αvβ3 integrin [7]): 2.12 ± 0.266 µM

Compound: COC(=O)c1ccc2c(c1)NC(=O)/C2=C(\Nc1ccc(N(C)C(=O)CN2CCN(CCCCNC(=O)CCc3cn(CCCCCC(=O)N4C[C@@H]5C[C@H]4C(=O)N[C@@H](CC(C)C)C(=O)N[C@@H](CCCNC(=N)N)C(=O)NCC(=O)N[C@@H](CC(=O)O)C(=O)N[C@@H](CC(C)C)C(=O)N5)nn3)CC2)cc1)c1ccccc1 [compound 1]
- IC50 (human recombinant VEGFR2): 0.006 µM
- IC50 (TGFβ-treated A549 cells): 9.5 µM
